Measurements as given in US20260297042A1, “BIARYLAMIDE DERIVATIVES AND THEIR USE AS PKMYT1 INHIBITORS” (CANCER RESEARCH TECHNOLOGY LIMITED, priority 2023, published 2026).
pIC50: −log10 of the molar value. Where a name gives a salt, the structure may show the parent alone.

Legend:
WEE1 = target: T1, WEE1 (Homo sapiens, UniProt P30291); assay: Selectivity versus WEE1 assay (ADP-Glo enzymatic assay); assay type: biochemical; conditions: banded; for pIC50: ADP-Glo, 15 nM WEE1, 60 minutes at 26° C.; for PKMYT1 vs. WEE1 selectivity: fold difference in selectivity for PKMYT1 over WEE1, ">N" = at least in this band but could be higher
T1 construct: purchased Thermo Fisher PR7373A
T1 sequence (P30291 whole entry): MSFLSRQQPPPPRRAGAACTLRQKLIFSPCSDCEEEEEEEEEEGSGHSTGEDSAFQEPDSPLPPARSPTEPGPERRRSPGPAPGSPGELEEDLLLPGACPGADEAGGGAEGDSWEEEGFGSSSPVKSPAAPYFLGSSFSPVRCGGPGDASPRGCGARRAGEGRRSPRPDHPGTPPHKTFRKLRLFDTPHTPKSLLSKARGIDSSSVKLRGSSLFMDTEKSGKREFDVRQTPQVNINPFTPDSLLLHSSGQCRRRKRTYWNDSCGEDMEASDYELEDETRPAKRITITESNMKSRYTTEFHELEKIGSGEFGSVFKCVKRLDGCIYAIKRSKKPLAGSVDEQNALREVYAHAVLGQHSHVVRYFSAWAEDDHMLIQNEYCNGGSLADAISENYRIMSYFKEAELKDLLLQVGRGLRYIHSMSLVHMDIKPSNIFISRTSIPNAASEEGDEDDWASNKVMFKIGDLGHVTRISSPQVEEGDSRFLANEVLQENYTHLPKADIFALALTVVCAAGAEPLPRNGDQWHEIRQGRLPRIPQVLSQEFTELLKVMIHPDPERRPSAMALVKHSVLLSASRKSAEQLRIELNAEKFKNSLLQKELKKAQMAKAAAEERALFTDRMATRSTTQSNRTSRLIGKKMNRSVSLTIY
Outline: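 Compounds were pre-dispensed, enzyme (15 nM final) was added in pH 7.5 HEPES buffer, and ATP ([…]) then started a 60 min incubation at 26° C. Afterwards ADP-Glo reagents were added in turn and luminescence was measured to derive IC50 values.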

Human PKMYT1 = target: T2, Human PKMYT1 (Homo sapiens, UniProt Q99640); assay: PKMYT1 biochemical ADP-Glo enzymatic assay; conditions: ADP-Glo; 15 nM PKMYT1 kinase domain, 500 µM ATP, 60 minutes at 26° C.; banded
T2 construct: Human PKMYT1 75-362 was cloned as a TEV cleavable 6xHis fusion; 6xHis (TEV cleavable) (cleaved yes); made in house; host or cells: bacterial cells
T2 sequence (Q99640 75-362): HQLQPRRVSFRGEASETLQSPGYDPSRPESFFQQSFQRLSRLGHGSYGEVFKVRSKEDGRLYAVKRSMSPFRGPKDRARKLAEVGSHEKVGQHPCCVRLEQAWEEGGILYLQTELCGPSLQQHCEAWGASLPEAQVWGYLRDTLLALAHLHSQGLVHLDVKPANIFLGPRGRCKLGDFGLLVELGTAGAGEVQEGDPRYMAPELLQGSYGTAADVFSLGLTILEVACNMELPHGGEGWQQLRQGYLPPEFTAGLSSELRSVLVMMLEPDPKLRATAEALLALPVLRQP
Outline: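 Compounds were titrated over 10 points (3-fold steps), then 15 nM purified PKMYT1 kinase domain (aa 75-362) and 500 µM ATP were added in pH 7.5 HEPES buffer. After 60 min at 26 °C, remaining ATP was depleted and ADP converted to luminescence for IC50 fitting.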

SMILES	pIC50 (WEE1)	PKMYT1 vs. WEE1 selectivity (WEE1)	pIC50 (Human PKMYT1)
Cc1ccc(O)c(C)c1NC(=O)c1cnc(Nc2ccn(CC(=O)N3C[C@@H](C)N(C(=O)OC(C)(C)C)[C@@H](C)C3)n2)s1 [BAA-156]	< 4.96	Y (1000-5000 fold)	> 7.30
Cc1ccc(O)c(C)c1NC(=O)c1cnc(Nc2ccn(CC(=O)NCC3CCN(C(=O)OC(C)(C)C)CC3)n2)s1 [BAA-157]	< 4.96	X (100-<1000 fold)	6.00 to 7.30
Cc1ccc(O)c(C)c1NC(=O)c1cnc(Nc2ccn(CC(=O)NCCN3CCN(C(=O)OC(C)(C)C)CC3)n2)s1 [BAA-158]	< 4.96	X (100-<1000 fold)	6.00 to 7.30
Cc1ccc(O)c(C)c1NC(=O)c1cnc(Nc2ccn(CC(=O)NCCCO)n2)s1 [BAA-159, N-(3-hydroxy-2,6-dimethyl-phenyl)-2-[[1-[2-(3-hydroxypropylamino)-2-oxo-ethyl]pyrazol-3-yl]amino]thiazole-5-carboxamide]	< 4.96	Y (1000-5000 fold)	> 7.30
Cc1ccc(O)c(C)c1NC(=O)c1cnc(Nc2ccn(CC(=O)N3CCC[C@@H](O)C3)n2)s1 [BAA-161]	< 4.96	Y (1000-5000 fold)	> 7.30
Cc1ccc(O)c(C)c1NC(=O)c1cnc(Nc2ccn(CC(=O)N3CC[C@H](O)C3)n2)s1 [BAA-162, N-(3-hydroxy-2,6-dimethyl-phenyl)-2-[1-[2-[(3S)-3-hydroxypyrrolidin-1-yl]-2-oxo-ethyl]pyrazol-3-ylamino]thiazole-5-carboxamide]	< 4.96	Y (1000-5000 fold)	> 7.30
Cc1ccc(O)c(C)c1NC(=O)c1cnc(Nc2ccn(CC(=O)N3CCC[C@H](O)C3)n2)s1 [BAA-163]	< 4.96	Y (1000-5000 fold)	> 7.30
Cc1ccc(O)c(C)c1NC(=O)c1cnc(Nc2ccn(CC(=O)N[C@H](C)CO)n2)s1 [BAA-164]	< 4.96	Y (1000-5000 fold)	> 7.30
Cc1ccc(O)c(C)c1NC(=O)c1cnc(Nc2ccn(CC(=O)N[C@@H](C)CO)n2)s1 [BAA-165]	< 4.96	Y (1000-5000 fold)	> 7.30
COCCNC(=O)Cn1ccc(Nc2ncc(C(=O)Nc3c(C)ccc(O)c3C)s2)n1 [BAA-166, N-(3-hydroxy-2,6-dimethyl-phenyl)-2-[[1-[2-(2-methoxyethylamino)-2-oxo-ethyl]pyrazol-3-yl]amino]thiazole-5-carboxamide]	< 4.96	Y (1000-5000 fold)	> 7.30
Cc1ccc(O)c(C)c1NC(=O)c1cnc(Nc2ccn(CC(=O)NCCN3CCCC3)n2)s1 [BAA-167]	< 4.96	X (100-<1000 fold)	6.00 to 7.30
Cc1ccc(O)c(C)c1NC(=O)c1cnc(Nc2ccn(CC(=O)NCCN3CCCCC3)n2)s1 [BAA-168, N-(3-hydroxy-2,6-dimethyl-phenyl)-2-[[1-[2-oxo-2-[2-(1-piperidyl)ethylamino]ethyl]pyrazol-3-yl]amino]thiazole-5-carboxamide (hydrochloride)]	< 4.96	W (10-<100 fold)	6.00 to 7.30
Cc1ccc(O)c(C)c1NC(=O)c1cnc(Nc2ccn(CC(=O)N3CCC(C)(O)CC3)n2)s1 [BAA-169, N-(3-hydroxy-2,6-dimethyl-phenyl)-2-[[1-[2-(4-hydroxy-4-methyl-1-piperidyl)-2-oxo-ethyl]pyrazol-3-yl]amino]thiazole-5-carboxamide]	< 4.96	Y (1000-5000 fold)	> 7.30
Cc1ccc(O)c(C)c1NC(=O)c1cnc(Nc2ccn(CC(=O)NC[C@@H](C)O)n2)s1 [BAA-170, N-(3-hydroxy-2,6-dimethyl-phenyl)-2-[[1-[2-[[(2R)-2-hydroxypropyl]amino]-2-oxo-ethyl]pyrazol-3-yl]amino]thiazole-5-carboxamide]	< 4.96	Y (1000-5000 fold)	> 7.30
Cc1ccc(O)c(C)c1NC(=O)c1cnc(Nc2ccn(CC(=O)N3CCCN(C)CC3)n2)s1 [BAA-171]	< 4.96	X (100-<1000 fold)	> 7.30
Cc1ccc(O)c(C)c1NC(=O)c1cnc(Nc2ccn(CC(=O)N3C[C@@H]4C[C@H]3CN4C)n2)s1 [BAA-172]	< 4.96	X (100-<1000 fold)	> 7.30
Cc1ccc(O)c(C)c1NC(=O)c1cnc(Nc2ccn(CC(=O)N3CCC3)n2)s1 [BAA-175, 2-[[1-[2-(azetidin-1-yl)-2-oxo-ethyl]pyrazol-3-yl]amino]-N-(3-hydroxy-2,6-dimethyl-phenyl)thiazole-5-carboxamide]	< 4.96	Y (1000-5000 fold)	> 7.30
Cc1ccc(O)c(C)c1NC(=O)c1cnc(Nc2ccn(CC(=O)N3CCC(F)(F)C3)n2)s1 [BAA-176]	< 4.96	Y (1000-5000 fold)	> 7.30

The next lines start with the values.

pIC50 (WEE1)	PKMYT1 vs. WEE1 selectivity (WEE1)	pIC50 (Human PKMYT1)	SMILES
< 4.96	X (100-<1000 fold)	> 7.30	CCN1CCN(C(=O)Cn2ccc(Nc3ncc(C(=O)Nc4c(C)ccc(O)c4C)s3)n2)CC1 [BAA-177]
< 4.96	X (100-<1000 fold)	6.00 to 7.30	Cc1ccc(O)c(C)c1NC(=O)c1cnc(Nc2ccn(CC(=O)N3CCN(C(C)C)CC3)n2)s1 [BAA-178]
< 4.96	Y (1000-5000 fold)	> 7.30	Cc1ccc(O)c(C)c1NC(=O)c1cnc(Nc2ccn(CC(=O)N3CC4CCC(C3)N4C(=O)OC(C)(C)C)n2)s1 [BAA-180]
< 4.96	Y (1000-5000 fold)	> 7.30	Cc1ccc(O)c(C)c1NC(=O)c1cnc(Nc2ccn(CC(=O)N3CCN(C4CC4)CC3)n2)s1 [BAA-182, 2-[[1-[2-(4-cyclopropylpiperazin-1-yl)-2-oxo-ethyl]pyrazol-3-yl]amino]-N-(3-hydroxy-2,6-dimethyl-phenyl)thiazole-5-carboxamide]
< 4.96	>X (100-<1000 fold)	6.00 to 7.30	Cc1ccc(O)c(C)c1NC(=O)c1cnc(Nc2ccn(CC(=O)N3CCN(CC(F)(F)F)CC3)n2)s1 [BAA-184]
< 4.96	>Y (1000-5000 fold)	6.00 to 7.30	Cc1ccc(O)c(C)c1NC(=O)c1cnc(Nc2ccn(CC(=O)N3CCN(C4CCC4)CC3)n2)s1 [BAA-185]
< 4.96	Y (1000-5000 fold)	> 7.30	Cc1ccc(O)c(C)c1NC(=O)c1cnc(Nc2ccn(CC(=O)N3CCN(C4CCCC4)CC3)n2)s1 [BAA-186]
< 4.96	Y (1000-5000 fold)	> 7.30	Cc1ccc(O)c(C)c1NC(=O)c1cnc(Nc2ccn(CC(=O)N3CCN(C4CCCCC4)CC3)n2)s1 [BAA-187]
< 4.96	Y (1000-5000 fold)	> 7.30	CCNC(=O)Cn1ccc(Nc2ncc(C(=O)Nc3c(C)ccc(O)c3C)s2)n1 [BAA-188]
< 4.96	Y (1000-5000 fold)	6.00 to 7.30	Cc1ccc(O)c(C)c1NC(=O)c1cnc(Nc2ccn(CC(=O)NC(C)C)n2)s1 [BAA-189, N-(3-hydroxy-2,6-dimethyl-phenyl)-2-[[1-[2-(isopropylamino)-2-oxo-ethyl]pyrazol-3-yl]amino]thiazole-5-carboxamide]
< 4.96	Y (1000-5000 fold)	> 7.30	Cc1ccc(O)c(C)c1NC(=O)c1cnc(Nc2ccn(CC(=O)NC3CCC3)n2)s1 [BAA-191]
< 4.96	Y (1000-5000 fold)	> 7.30	Cc1ccc(O)c(C)c1NC(=O)c1cnc(Nc2ccn(CC(=O)NC3CCCC3)n2)s1 [BAA-192]
< 4.96	Y (1000-5000 fold)	> 7.30	Cc1ccc(O)c(C)c1NC(=O)c1cnc(Nc2ccn(CC(=O)NC3CCCCC3)n2)s1 [BAA-193]
< 4.96	Y (1000-5000 fold)	> 7.30	Cc1ccc(O)c(C)c1NC(=O)c1cnc(Nc2ccn(CC(=O)N3CC4C(C3)C4(F)F)n2)s1 (stereo not drawn) [BAA-194]
< 4.96	Y (1000-5000 fold)	> 7.30	Cc1ccc(O)c(C)c1NC(=O)c1cnc(Nc2ccn(CC(=O)NC3CCOCC3)n2)s1 [BAA-195]
< 4.96	Y (1000-5000 fold)	> 7.30	Cc1ccc(O)c(C)c1NC(=O)c1cnc(Nc2ccn(CC(=O)N3CC(F)(F)C3)n2)s1 [BAA-196]
< 4.96	Y (1000-5000 fold)	> 7.30	CCCNC(=O)Cn1ccc(Nc2ncc(C(=O)Nc3c(C)ccc(O)c3C)s2)n1 [BAA-197]
